From ChEMBL document CHEMBL4808204, “Discovery of non-proteinogenic amino acids inhibiting biofilm formation by S. aureus and methicillin-resistant S. aureus” (Bioorg Med Chem Lett, 2021)
Calls of active or inactive are those of the source. No cut-off for these calls is given here.

What was measured:
[1] = test system: Staphylococcus aureus; experiment: Antibacterial activity in Staphylococcus aureus assessed as bacterial growth rate at 100 uM measured by UV absorbance based analysis; assay type: functional
[2] = test system: Staphylococcus aureus; experiment: Antibiofilm activity against Staphylococcus aureus assessed as biofilm formation at 100 uM measured by crystal violet staining based microplate reader assay; assay type: functional
[3] = test system: Staphylococcus aureus; experiment: Antibiofilm activity against Staphylococcus aureus assessed as inhibition of biofilm formation at 10 uM measured by crystal violet staining based microplate reader assay; assay type: functional
[4] = test system: Staphylococcus epidermidis; experiment: Antibiofilm activity against Staphylococcus epidermidis assessed as inhibition of biofilm formation at 1 to 100 uM by UV absorbance based analysis; assay type: functional, organism-based; conditions: dose 1-100 µM
[5] = test system: Streptococcus mutans; experiment: Antibiofilm activity against Streptococcus mutans assessed as inhibition of biofilm formation at 1 to 100 uM by UV absorbance based analysis; assay type: functional, organism-based; conditions: dose 1-100 µM
[6] = test system: Staphylococcus aureus; experiment: Antibiofilm activity against Staphylococcus aureus assessed as inhibition of attachment of biofilm on the bacterial surface at 1 to 100 uM; assay type: functional, organism-based; conditions: dose 1-100 µM
[7] = test system: Pseudomonas aeruginosa; experiment: Antibiofilm activity against Pseudomonas aeruginosa assessed as inhibition of biofilm formation at 1 to 100 uM by UV absorbance based analysis; assay type: functional, organism-based; conditions: dose 1-100 µM
[8] = test system: Staphylococcus aureus; experiment: Antibiofilm activity against methicillin-resistant Staphylococcus aureus assessed as inhibition of biofilm formation by UV absorbance based analysis; assay type: functional, organism-based; conditions: dose 1-100 µM
[9] = test system: Escherichia coli; experiment: Antibiofilm activity against Escherichia coli assessed as inhibition of biofilm formation at 1 to 100 uM by UV absorbance based analysis; assay type: functional, organism-based; conditions: dose 1-100 µM
[10] = test system: Listeria monocytogenes; experiment: Antibiofilm activity against Listeria monocytogenes assessed as inhibition of biofilm formation by UV absorbance based analysis; assay type: functional, organism-based; conditions: dose 1-100 µM
[11] = test system: HeLa; experiment: Cytotoxicity against human HeLa cells at 1 to 100 uM by WST8 assay; assay type: cell-based; conditions: dose 1-100 µM
[12] = test system: Pseudomonas aeruginosa; experiment: Antibiofilm activity against Pseudomonas aeruginosa assessed as inhibition of biofilm formation at 100 uM measured by crystal violet staining based microplate reader assay; assay type: functional, organism-based
[13] = test system: Acinetobacter baumannii; experiment: Antibiofilm activity against Acinetobacter baumannii assessed as inhibition of biofilm formation at 1 to 100 uM by UV absorbance based analysis; assay type: functional, organism-based; conditions: dose 1-100 µM
[14] = test system: Staphylococcus aureus; experiment: Antibiofilm activity against Staphylococcus aureus assessed as inhibition of biofilm formation by UV absorbance based analysis; assay type: functional, organism-based; conditions: dose 1-100 µM
[15] = test system: Staphylococcus aureus; experiment: Antibiofilm activity against Staphylococcus aureus assessed as inhibition of biofilm formation at 100 uM; assay type: functional
[16] = test system: Staphylococcus aureus; experiment: Antibiofilm activity against Staphylococcus aureus assessed as inhibition of biofilm formation at 500 uM; assay type: functional
[17] = test system: Staphylococcus aureus; experiment: Antibiofilm activity against Staphylococcus aureus assessed as inhibition of biofilm formation at 60 uM; assay type: functional
[18] = test system: Pseudomonas aeruginosa; experiment: Antibiofilm activity against Pseudomonas aeruginosa assessed as inhibition of biofilm formation at 100 uM; assay type: functional
[19] = test system: Staphylococcus aureus; experiment: Antibiofilm activity against Staphylococcus aureus assessed as inhibition of biofilm formation at 66 uM; assay type: functional

| SMILES | Activity [1] | Biofilm formation [2] | also measured |
| --- | --- | --- | --- |
| CNC[C@H](O)c1ccc(O)c(O)c1 [EPINEPHRINE] | 79% |  | Activity [2]: 77% |
| NC(Cc1cc(I)c(O)c(I)c1)C(=O)O (configuration not stated) | 26% | 5% |  |
| NC(C(=O)O)C(O)c1ccc(O)c(O)c1 (configuration not stated) | 104% | 12% | inhibition at 10 µM [3]: 53%; Activity [4]: inactive; Activity [5]: inactive; Activity [6]: inactive; Activity [7]: inactive; Activity [8]: Dose-Dependent Effect; Activity [9]: inactive; Activity [10]: Dose-Dependent Effect; Activity [11]: Non-Toxic; Activity [12]: inactive; Activity [13]: inactive; Activity [14]: Dose-Dependent Effect |
| N[C@H](Cc1ccc(O)cc1)C(=O)O | 119% | 85% | inhibition at 100 µM [15]: > 70% |
| NC(Cc1ccc(Oc2ccc(O)cc2)cc1)C(=O)O (configuration not stated) | 106% | 15% |  |
| OCc1ccc(O)c(O)c1 | 104% | 107% |  |
| O=C(O)[C@H]1CCCN1 [D-PROLINE] |  |  | inhibition at 500 µM [16]: > 70% |
| NC(C(=O)O)C(O)c1ccccc1 (configuration not stated) | 97% | 101% |  |
| CC(C)c1ccc2c(c1)CC[C@H]1[C@](C)(C(=O)O)CCC[C@]21C [DEHYDROABIETIC ACID] |  |  | inhibition at 60 µM [17]: 90% |
| N[C@@H](Cc1ccc(O)c(O)c1)C(=O)O [LEVODOPA] | 84% | 32% |  |
| N[C@@H](Cc1ccc(O)c([N+](=O)[O-])c1)C(=O)O | 80% | 16% |  |
| NCCc1ccc(O)c(O)c1 [DOPAMINE] | 98% |  | Activity [2]: 79% |
| N[C@@H](Cc1ccc(Cl)c(Cl)c1)C(=O)O | 117% | 46% |  |
| N[C@@H](Cc1ccc(F)c(F)c1)C(=O)O | 145% | 31% |  |
| CCCCCCCCCCCCCC(=O)NCC(=O)O | 38% | 4% |  |
| N[C@H](CO)C(=O)O [(D)-SERINE] | 85% | 83% |  |
| N[C@H](Cc1ccccc1)C(=O)O [D-PHENYLALANINE] |  |  | inhibition at 500 µM [16]: > 70% |
| Oc1ccccc1O [CATECHOL] | 106% | 84% |  |
| O=c1c(O)c(-c2ccc(O)c(O)c2)oc2cc(O)cc(O)c12 [QUERCETIN] |  |  | inhibition at 100 µM [18]: > 70%; inhibition at 66 µM [19]: > 70% |
| NC(Cc1cc(Br)c(O)c(Br)c1)C(=O)O (configuration not stated) | 72% | 6% |  |
| NC(Cc1cc(I)c(Oc2ccc(O)c(I)c2)c(I)c1)C(=O)[O-].[Na+] (configuration not stated) | 18% | 2% |  |
